Experimental data reported in PubChem BioAssay (NCI).
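Five concentrations, 48 hours, 96-well plates. Here, GI50 denotes the concentration required for 50% inhibition of growth. TGI denotes the concentration required for complete inhibition of growth.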

Legend:
Test in all cases: NCI anticancer screen, dose series, 48 h
CAKI-1 renal = system: CAKI-1 renal
M14 melanoma = system: M14 melanoma
SW-620 colon = system: SW-620 colon
A498 renal = system: A498 renal
RPMI-8226 leukemia = system: RPMI-8226 leukemia
MOLT-4 leukemia = system: MOLT-4 leukemia
BT-549 breast = system: BT-549 breast
SNB-75 CNS = system: SNB-75 CNS
UACC-62 melanoma = system: UACC-62 melanoma
CCRF-CEM leukemia = system: CCRF-CEM leukemia
OVCAR-8 ovarian = system: OVCAR-8 ovarian
NCI-H522 lung = system: NCI-H522 lung
MDA-MB-435 = system: MDA-MB-435
HOP-92 NSCLC = system: HOP-92 NSCLC
A549 NSCLC = system: A549 NSCLC
SK-MEL-28 melanoma = system: SK-MEL-28 melanoma
HS 578T breast = system: HS 578T breast
OVCAR-5 ovarian = system: OVCAR-5 ovarian
MALME-3M melanoma = system: MALME-3M melanoma
HT29 colon = system: HT29 colon
SF-295 CNS = system: SF-295 CNS
KM12 colon = system: KM12 colon
NCI-H460 lung = system: NCI-H460 lung
HCT-15 colon = system: HCT-15 colon
PC-3 prostate = system: PC-3 prostate
SK-MEL-5 melanoma = system: SK-MEL-5 melanoma
NCI/ADR-RES ovarian = system: NCI/ADR-RES ovarian
786-0 renal = system: 786-0 renal
MDA-MB-231 breast = system: MDA-MB-231 breast
SF-539 CNS = system: SF-539 CNS
IGROV1 ovarian = system: IGROV1 ovarian
RXF 393 renal = system: RXF 393 renal
NCI-H226 lung = system: NCI-H226 lung
T-47D breast = system: T-47D breast
SK-MEL-2 melanoma = system: SK-MEL-2 melanoma
MCF7 breast = system: MCF7 breast
SF-268 CNS = system: SF-268 CNS
HOP-62 NSCLC = system: HOP-62 NSCLC
HL-60(TB) leukemia = system: HL-60(TB) leukemia
UACC-257 melanoma = system: UACC-257 melanoma
DU-145 prostate = system: DU-145 prostate
SK-OV-3 ovarian = system: SK-OV-3 ovarian
TK-10 renal = system: TK-10 renal
OVCAR-4 ovarian = system: OVCAR-4 ovarian
HCT-116 colon = system: HCT-116 colon
EKVX NSCLC = system: EKVX NSCLC
HCC-2998 colon = system: HCC-2998 colon
SNB-19 CNS = system: SNB-19 CNS
U251 CNS = system: U251 CNS
LOX IMVI melanoma = system: LOX IMVI melanoma
SR leukemia = system: SR leukemia
K-562 leukemia = system: K-562 leukemia
COLO 205 colon = system: COLO 205 colon
SN12C renal = system: SN12C renal
NCI-H23 lung = system: NCI-H23 lung

COc1ccc(-c2nnc(SCc3ccc(O)c4ncccc34)n2-c2ccccc2)cc1
GI50 (CAKI-1 renal): 637 nM | TGI (CAKI-1 renal): 4290 nM | GI50 (M14 melanoma): 451 nM | TGI (M14 melanoma): 2500 nM | GI50 (SW-620 colon): 438 nM | TGI (SW-620 colon): > 100000 nM | GI50 (A498 renal): 2230 nM | TGI (A498 renal): 12500 nM | GI50 (RPMI-8226 leukemia): 493 nM | TGI (RPMI-8226 leukemia): > 100000 nM | GI50 (MOLT-4 leukemia): 508 nM | TGI (MOLT-4 leukemia): > 100000 nM | GI50 (BT-549 breast): 572 nM | TGI (BT-549 breast): 17000 nM | GI50 (SNB-75 CNS): 951 nM | TGI (SNB-75 CNS): 6130 nM | GI50 (UACC-62 melanoma): 1310 nM | TGI (UACC-62 melanoma): 4980 nM | GI50 (CCRF-CEM leukemia): 424 nM | TGI (CCRF-CEM leukemia): > 100000 nM | GI50 (OVCAR-8 ovarian): 447 nM | TGI (OVCAR-8 ovarian): 96900 nM | GI50 (NCI-H522 lung): 479 nM | TGI (NCI-H522 lung): 11100 nM | GI50 (MDA-MB-435): 468 nM | TGI (MDA-MB-435): > 100000 nM | GI50 (HOP-92 NSCLC): 231 nM | TGI (HOP-92 NSCLC): 818 nM | GI50 (A549 NSCLC): 986 nM | TGI (A549 NSCLC): > 60000 nM | GI50 (SK-MEL-28 melanoma): 726 nM | TGI (SK-MEL-28 melanoma): 31300 nM | GI50 (HS 578T breast): 491 nM | TGI (HS 578T breast): 10000 nM | GI50 (OVCAR-5 ovarian): 3960 nM | TGI (OVCAR-5 ovarian): > 100000 nM | GI50 (MALME-3M melanoma): 968 nM | TGI (MALME-3M melanoma): 5210 nM | GI50 (HT29 colon): 4900 nM | TGI (HT29 colon): > 100000 nM | GI50 (SF-295 CNS): 449 nM | TGI (SF-295 CNS): 6840 nM | GI50 (KM12 colon): 619 nM | TGI (KM12 colon): > 89000 nM | GI50 (NCI-H460 lung): 385 nM | TGI (NCI-H460 lung): 3310 nM | GI50 (HCT-15 colon): 328 nM | TGI (HCT-15 colon): > 100000 nM | GI50 (PC-3 prostate): 526 nM | TGI (PC-3 prostate): 28300 nM | GI50 (SK-MEL-5 melanoma): 720 nM | TGI (SK-MEL-5 melanoma): 3560 nM | GI50 (NCI/ADR-RES ovarian): 290 nM | TGI (NCI/ADR-RES ovarian): 5700 nM | GI50 (786-0 renal): 891 nM | TGI (786-0 renal): 9810 nM | GI50 (MDA-MB-231 breast): 922 nM | TGI (MDA-MB-231 breast): 26700 nM | GI50 (SF-539 CNS): 605 nM | TGI (SF-539 CNS): 5040 nM | GI50 (IGROV1 ovarian): 892 nM | TGI (IGROV1 ovarian): 25000 nM | GI50 (RXF 393 renal): 915 nM | TGI (RXF 393 renal): 11100 nM | GI50 (NCI-H226 lung): 2460 nM | TGI (NCI-H226 lung): 98000 nM | GI50 (T-47D breast): 929 nM | TGI (T-47D breast): 4200 nM | GI50 (SK-MEL-2 melanoma): 1160 nM | TGI (SK-MEL-2 melanoma): 6710 nM | GI50 (MCF7 breast): 395 nM | TGI (MCF7 breast): > 100000 nM | GI50 (SF-268 CNS): 605 nM | TGI (SF-268 CNS): 56600 nM | GI50 (HOP-62 NSCLC): 1000 nM | TGI (HOP-62 NSCLC): 16700 nM | GI50 (HL-60(TB) leukemia): 397 nM | TGI (HL-60(TB) leukemia): 3410 nM | GI50 (UACC-257 melanoma): 1020 nM | TGI (UACC-257 melanoma): 10700 nM | GI50 (DU-145 prostate): 637 nM | TGI (DU-145 prostate): > 53500 nM | GI50 (SK-OV-3 ovarian): 745 nM | TGI (SK-OV-3 ovarian): 9230 nM | GI50 (TK-10 renal): 870 nM | TGI (TK-10 renal): 7510 nM | GI50 (OVCAR-4 ovarian): 739 nM | TGI (OVCAR-4 ovarian): > 100000 nM | GI50 (HCT-116 colon): 361 nM | TGI (HCT-116 colon): 5400 nM | GI50 (EKVX NSCLC): 1050 nM | TGI (EKVX NSCLC): 10300 nM | GI50 (HCC-2998 colon): 1190 nM | TGI (HCC-2998 colon): > 100000 nM | GI50 (SNB-19 CNS): 553 nM | TGI (SNB-19 CNS): > 40900 nM | GI50 (U251 CNS): 389 nM | TGI (U251 CNS): 13800 nM | GI50 (LOX IMVI melanoma): 478 nM | TGI (LOX IMVI melanoma): 2620 nM | GI50 (SR leukemia): 371 nM | TGI (SR leukemia): > 100000 nM | GI50 (K-562 leukemia): 370 nM | TGI (K-562 leukemia): > 100000 nM | GI50 (COLO 205 colon): 6710 nM | TGI (COLO 205 colon): > 100000 nM | GI50 (SN12C renal): 468 nM | TGI (SN12C renal): > 100000 nM | GI50 (NCI-H23 lung): 661 nM | TGI (NCI-H23 lung): 30400 nM

NC(N)=Nc1ccc(Oc2cccc(Oc3ccc(Cl)c(C(F)(F)F)c3)c2)cn1
GI50 (SNB-75 CNS): 1330 nM | TGI (SNB-75 CNS): 2670 nM | GI50 (RXF 393 renal): 1790 nM | TGI (RXF 393 renal): 3430 nM
